Biological target: T1, TβRII kinase (Homo sapiens, UniProt P37173)
T1 construct: cytoplasmic domain of TβRII-amino acids 193-567 with A to V change at 438
T1 sequence (P37173 193-567): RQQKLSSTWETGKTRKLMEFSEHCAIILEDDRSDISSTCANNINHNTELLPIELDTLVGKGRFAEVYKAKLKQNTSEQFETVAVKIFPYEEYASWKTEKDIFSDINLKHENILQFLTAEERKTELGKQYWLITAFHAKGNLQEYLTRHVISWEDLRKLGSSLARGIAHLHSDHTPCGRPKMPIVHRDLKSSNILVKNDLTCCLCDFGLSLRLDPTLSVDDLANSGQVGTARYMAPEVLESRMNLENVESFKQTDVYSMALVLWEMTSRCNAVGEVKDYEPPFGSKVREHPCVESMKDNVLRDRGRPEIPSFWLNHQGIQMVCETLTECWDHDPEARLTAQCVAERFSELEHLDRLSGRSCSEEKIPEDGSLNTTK
Test: TGF-β Type II Receptor (TβRII) kinase assay: phosphorylation of myelin basic protein
Assay type: biochemical
Settings: GST-TβRII 27 nanomolar, MBP 3 micromolar, ATP 0.25 micromolar, 90 minutes at room temperature
Description: Phosphorylation of myelin basic protein (MBP) by the TβRII kinase was measured as follows: 80 microliters of MBP (Upstate Biotechnology #13-104) diluted in kinase reaction buffer (KRB) containing 50 mM MOPS, 5 mM MgCl2, pH 7.2 to yield a final concentration of 3 micromolar MBP was added to each well of a Millipore 96-well multiscreen-DP 0.65 micron filtration plate (#MADPNOB50). 20 microliters of inhibitor diluted in KRB was added to appropriate wells to yield the desired final concentration (10-0.03 micromolar). 10 microliters of a mixture of ATP (Sigma #A-5394) and ^33P-ATP (Perkin Elmer #NEG/602H) diluted in KRB was added to yield a final concentration of 0.25 micromolar ATP and 0.02 microcuries of ^33P-ATP per well. 10 microliters of a GST-TβRII fusion protein (glutathione S-transferase at the N-terminal end of the cytoplasmic domain of TβRII-amino acids 193-567 with A to V change at 438) diluted in KRB was added to each well to yield a final concentration of 27 nanomolar GST-TβRII. Plates were mixed and incubated for 90 minutes at room temperature. After the reaction incubation, 100 microliters of cold 20% trichloroacetic acid (Aldrich #25,139-9) was added per well and plates were mixed and incubated for 60 minutes at 4° C. Liquid was then removed from the wells using a Millipore vacuum manifold. Plates were washed once with 200 microliters per well of cold 10% trichloroacetic acid followed by two washes with 100 microliters per well of cold 10% trichloroacetic acid. Plates were allowed to dry overnight at room temperature. 20 microliters of Wallac OptiPhase SuperMix scintillation cocktail was added to each well. Plates were sealed and counted using a Wallac 1450 Microbeta liquid scintillation counter. The potency of inhibitors was determined by their ability to reduce TβRII-mediated phosphorylation of the MBP substrate.

SMILES | IC50 [nM]
NC(=O)c1c(OCc2cccnc2)nsc1NC(=O)NCCC1=CCCCC1 [Example 3, 5-[3-(2-Cyclohex-1-enyl-ethyl)-ureido]-3-(pyridin-3-ylmethoxy)-isothiazole-4-carboxylic acid amide] | 1610
Cc1ccc(C)c(CNC(=O)Nc2snc(OCc3cccnc3)c2C(N)=O)c1 [Example 4, 5-[3-(2,5-Dimethyl-benzyl)-ureido]-3-(pyridin-3-ylmethoxy)-isothiazole-4-carboxylic acid amide] | 1600
COc1ccc(CCNC(=O)Nc2snc(OCc3cccnc3)c2C(N)=O)cc1OC [Example 6, 5-{3-[2-(3,4-Dimethoxy-phenyl)-ethyl]-ureido}-3-(pyridin-3-ylmethoxy)-isothiazole-4-carboxylic acid amide] | 754
NC(=O)c1c(OCc2cccnc2)nsc1NC(=O)NCCc1ccccc1 [Example 7, 5-(3-Phenethyl-ureido)-3-(pyridin-3-ylmethoxy)-isothiazole-4-carboxylic acid amide] | 940
CCOc1cc(CCNC(=O)Nc2snc(OCc3cccnc3)c2C(N)=O)ccc1OC [Example 8, 5-{3-[2-(3-Ethoxy-4-methoxy-phenyl)-ethyl]-ureido}-3-(pyridin-3-ylmethoxy)-isothiazole-4-carboxylic acid amide] | 1970
NC(=O)c1c(OCc2cccnc2)nsc1NC(=O)NCCc1cccc(Cl)c1 [Example 9, 5-{3-[2-(3-Chloro-phenyl)-ethyl]-ureido}-3-(pyridin-3-ylmethoxy)-isothiazole-4-carboxylic acid amide] | 2260
COc1cccc(CCNC(=O)Nc2snc(OCc3cccnc3)c2C(N)=O)c1 [Example 10, 5-{3-[2-(3-Methoxy-phenyl)-ethyl]-ureido}-3-(pyridin-3-ylmethoxy)-isothiazole-4-carboxylic acid amide] | 2120
NC(=O)c1c(OCc2cccnc2)nsc1NC(=O)NCCc1ccccc1Cl [Example 11, 5-{3-[2-(2-Chloro-phenyl)-ethyl]-ureido}-3-(pyridin-3-ylmethoxy)-isothiazole-4-carboxylic acid amide] | 2990
NC(=O)c1c(OCc2cccnc2)nsc1NC(=O)NCCc1ccccc1F [Example 12, 5-{3-[2-(2-Fluoro-phenyl)-ethyl]-ureido}-3-(pyridin-3-ylmethoxy)-isothiazole-4-carboxylic acid amide] | 3120
NC(=O)c1c(OCc2cccnc2)nsc1NC(=O)NCCc1cccc(F)c1 [Example 13, 5-{3-[2-(3-Fluoro-phenyl)-ethyl]-ureido}-3-(pyridin-3-ylmethoxy)-isothiazole-4-carboxylic acid amide] | 1480
CCOc1ccc(CCNC(=O)Nc2snc(OCc3cccnc3)c2C(N)=O)cc1OC [Example 14, 5-{3-[2-(4-Ethoxy-3-methoxy-phenyl)-ethyl]-ureido}-3-(pyridin-3-ylmethoxy)-isothiazole-4-carboxylic acid amide] | 551
NC(=O)c1c(OCc2cccnc2)nsc1NC(=O)NCCCN1CCOCC1 [Example 15, 5-[3-(3-Morpholin-4-yl-propyl)-ureido]-3-(pyridin-3-ylmethoxy)-isothiazole-4-carboxylic acid amide] | 437
NC(=O)c1c(OCc2cccnc2)nsc1NC(=O)NCCN1CCOCC1 [Example 16, 5-[3-(2-Morpholin-4-yl-ethyl)-ureido]-3-(pyridin-3-ylmethoxy)-isothiazole-4-carboxylic acid amide] | 855
CCN(CC)CCNC(=O)Nc1snc(OCc2cccnc2)c1C(N)=O [Example 17, 5-[3-(2-Diethylamino-ethyl)-ureido]-3-(pyridin-3-ylmethoxy)-isothiazole-4-carboxylic acid amide] | 1940
CN(C)CCCNC(=O)Nc1snc(OCc2cccnc2)c1C(N)=O [Example 18, 5-[3-(3-Dimethylamino-propyl)-ureido]-3-(pyridin-3-ylmethoxy)-isothiazole-4-carboxylic acid amide] | 801
CN1CCCC1CCNC(=O)Nc1snc(OCc2cccnc2)c1C(N)=O (stereo not drawn) [Example 19, 5-{3-[2-(1-Methyl-pyrrolidin-2-yl)-ethyl]-ureido}-3-(pyridin-3-ylmethoxy)-isothiazole-4-carboxylic acid amide] | 457
CC1CCCCN1CCCNC(=O)Nc1snc(OCc2cccnc2)c1C(N)=O (stereo not drawn) [Example 20, 5-{3-[3-(2-Methyl-piperidin-1-yl)-propyl]-ureido}-3-(pyridin-3-ylmethoxy)-isothiazole-4-carboxylic acid amide] | 966
NC(=O)c1c(OCc2cccnc2)nsc1NC(=O)NC[C@H]1CCCCC[C@H]1O [Example 21, (R),(R)-5-[3-(2-Hydroxy-cycloheptylmethyl)-ureido]-3-(pyridin-3-ylmethoxy)-isothiazole-4-carboxylic acid amide] | 759
NC(=O)c1c(OCc2cccnc2)nsc1NC(=O)NC[C@H]1CCCCCC[C@H]1O [Example 22, (R),(R)-5-[3-(2-Hydroxy-cyclooctylmethyl)-ureido]-3-(pyridin-3-ylmethoxy)-isothiazole-4-carboxylic acid amide] | 753
NC(=O)c1c(OCc2cccnc2)nsc1NC(=O)NCCO [Example 23, 5-[3-(2-Hydroxy-ethyl)-ureido]-3-(pyridin-3-ylmethoxy)-isothiazole-4-carboxylic acid amide] | 349
CCC(O)CNC(=O)Nc1snc(OCc2cccnc2)c1C(N)=O (stereo not drawn) [Example 24, 5-[3-(2-Hydroxy-butyl)-ureido]-3-(pyridin-3-ylmethoxy)-isothiazole-4-carboxylic acid amide] | 669
CC(Oc1nsc(NC(=O)NCc2ccccn2)c1C(N)=O)c1cccnc1 (stereo not drawn) [Example 25, 3-(1-Pyridin-3-yl-ethoxy)-5-(3-pyridin-2-ylmethyl-ureido)-isothiazole-4-carboxylic acid amide] | 7390
COc1cccc(OC)c1CNC(=O)Nc1snc(OC(C)c2cccnc2)c1C(N)=O (stereo not drawn) [Example 26, 5-[3-(2,6-Dimethoxy-benzyl)-ureido]-3-(1-pyridin-3-yl-ethoxy)-isothiazole-4-carboxylic acid amide] | 502
CNC(=O)Nc1snc(OC(C)c2cccnc2)c1C(N)=O (stereo not drawn) [Example 27, 5-(3-Methyl-ureido)-3-(1-pyridin-3-yl-ethoxy)-isothiazole-4-carboxylic acid amide] | 710

From US20040147574A1, “Isothiazole derivatives” (Pfizer Inc, priority 2003, published 2004)
